Data from patent US10077261B2, “Imidazolin-5-one derivative useful as FASN inhibitors for the treatment of cancer” (Janssen Pharmaceutica NV, priority 2012, dated 2018).

Assays:
[1] = biological target: T1, hFASN enzyme (full length) (Homo sapiens, UniProt P49327); experiment: Fatty Acid Synthase (FASN) inhibition scintillation proximity assay; type: biochemical; conditions: for inhibition at 10 µM: read-out: Human FASN % inhibition @ 10 μM, 10 μM test compound; for IC50: read-out: Human FASN pIC50 (converted)
T1 construct: 10 μL hFASN enzyme (full length, 300 ng, purified in house); made in house
Procedure, shortened: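 Purified full-length hFASN (300 ng) converts ^3H-acetyl-CoA plus malonyl-CoA to ^3H-palmitate in 100 mM KH2PO4 pH 7.5, 1 mM DTT; compounds tested at 0.01–30 μM. Product captured on streptavidin imaging beads and read by LEADseeker at 610 nm after ≥24 h; 4-parameter logistic fit versus controls.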

[2] = test system: A2780 ovarian cells; experiment: A2780 ovarian cell proliferation assay in lipid reduced medium, with palmitate (MTT); type: cell-based; conditions: Homo sapiens, A2780, 96 h; read-out: pIC50 A2780 Ovarian Cell, With Palmitate (converted)
Protocol: (§1) The biological assays described below correspond to comparative assays for ovarian cell proliferation. […] Compounds active in the absence of palmitate would not be expected to be active in the control.
(§2) 2500 cells were seeded in a 96-well clear well plate in 200 μL RPMI1640 with 10% Fetal Calf Serum (Hyclone), and incubated at 37° C., 5% CO2. Blanks were wells without cells. The next day the culture medium was aspirated and replaced by 160 μL culture medium with 10% Lipid-Reduced Serum (LRS, Hyclone). 20 μL test compound (at concentrations of 30 μM, 10 μM, 3 μM, 1 μM, 0.30 μM, 0.10 μM, 0.03 μM and 0.01 μM)/DMSO dilution followed by 20 μL palmitate-BSA solution were added to a final concentrations of 0.2% DMSO, 25 μM palmitate (Sigma, P0500, 10 mM stock solution in ethanol) 0.2% fatty-acid-free BSA, 0.25% ethanol. After 96 h incubation, an MTT assay was performed. The absorbance was measured at 544 nm on a SPECTRAMAX brand microplate reader (Molecular Devices).
A best fit curve was fitted by a minimum sum of squares method, plotting Controlmin versus test compound concentration.
(§3) Representative compounds of the present invention were tested according to the procedure as described in Biological Example 3 above, with results as listed in Table 8, below.

[3] = test system: A2780 ovarian cells; experiment: A2780 ovarian cell proliferation assay in lipid reduced medium, without palmitate (MTT); type: cell-based; conditions: Homo sapiens, A2780, 96 h; read-out: pIC50 A2780 Ovarian Cell, Without Palmitate (converted)
Protocol: as §1
as §2, with “ethanol-BSA” for “palmitate-BSA”, “DMSO,” for “DMSO, 25 μM palmitate (Sigma, P0500, 10 mM stock solution in ethanol)”, “incubation” for “incubation,”
where mLC and mHC were the means of the low control wells and high control wells on the plate, after manual exclusion of outliers. A plot of Controlmin versus test compound concentration was fitted to a 4-parameter logistic curve using a non-linear least squares regression method.
as §3

T1 sequence (P49327 whole entry): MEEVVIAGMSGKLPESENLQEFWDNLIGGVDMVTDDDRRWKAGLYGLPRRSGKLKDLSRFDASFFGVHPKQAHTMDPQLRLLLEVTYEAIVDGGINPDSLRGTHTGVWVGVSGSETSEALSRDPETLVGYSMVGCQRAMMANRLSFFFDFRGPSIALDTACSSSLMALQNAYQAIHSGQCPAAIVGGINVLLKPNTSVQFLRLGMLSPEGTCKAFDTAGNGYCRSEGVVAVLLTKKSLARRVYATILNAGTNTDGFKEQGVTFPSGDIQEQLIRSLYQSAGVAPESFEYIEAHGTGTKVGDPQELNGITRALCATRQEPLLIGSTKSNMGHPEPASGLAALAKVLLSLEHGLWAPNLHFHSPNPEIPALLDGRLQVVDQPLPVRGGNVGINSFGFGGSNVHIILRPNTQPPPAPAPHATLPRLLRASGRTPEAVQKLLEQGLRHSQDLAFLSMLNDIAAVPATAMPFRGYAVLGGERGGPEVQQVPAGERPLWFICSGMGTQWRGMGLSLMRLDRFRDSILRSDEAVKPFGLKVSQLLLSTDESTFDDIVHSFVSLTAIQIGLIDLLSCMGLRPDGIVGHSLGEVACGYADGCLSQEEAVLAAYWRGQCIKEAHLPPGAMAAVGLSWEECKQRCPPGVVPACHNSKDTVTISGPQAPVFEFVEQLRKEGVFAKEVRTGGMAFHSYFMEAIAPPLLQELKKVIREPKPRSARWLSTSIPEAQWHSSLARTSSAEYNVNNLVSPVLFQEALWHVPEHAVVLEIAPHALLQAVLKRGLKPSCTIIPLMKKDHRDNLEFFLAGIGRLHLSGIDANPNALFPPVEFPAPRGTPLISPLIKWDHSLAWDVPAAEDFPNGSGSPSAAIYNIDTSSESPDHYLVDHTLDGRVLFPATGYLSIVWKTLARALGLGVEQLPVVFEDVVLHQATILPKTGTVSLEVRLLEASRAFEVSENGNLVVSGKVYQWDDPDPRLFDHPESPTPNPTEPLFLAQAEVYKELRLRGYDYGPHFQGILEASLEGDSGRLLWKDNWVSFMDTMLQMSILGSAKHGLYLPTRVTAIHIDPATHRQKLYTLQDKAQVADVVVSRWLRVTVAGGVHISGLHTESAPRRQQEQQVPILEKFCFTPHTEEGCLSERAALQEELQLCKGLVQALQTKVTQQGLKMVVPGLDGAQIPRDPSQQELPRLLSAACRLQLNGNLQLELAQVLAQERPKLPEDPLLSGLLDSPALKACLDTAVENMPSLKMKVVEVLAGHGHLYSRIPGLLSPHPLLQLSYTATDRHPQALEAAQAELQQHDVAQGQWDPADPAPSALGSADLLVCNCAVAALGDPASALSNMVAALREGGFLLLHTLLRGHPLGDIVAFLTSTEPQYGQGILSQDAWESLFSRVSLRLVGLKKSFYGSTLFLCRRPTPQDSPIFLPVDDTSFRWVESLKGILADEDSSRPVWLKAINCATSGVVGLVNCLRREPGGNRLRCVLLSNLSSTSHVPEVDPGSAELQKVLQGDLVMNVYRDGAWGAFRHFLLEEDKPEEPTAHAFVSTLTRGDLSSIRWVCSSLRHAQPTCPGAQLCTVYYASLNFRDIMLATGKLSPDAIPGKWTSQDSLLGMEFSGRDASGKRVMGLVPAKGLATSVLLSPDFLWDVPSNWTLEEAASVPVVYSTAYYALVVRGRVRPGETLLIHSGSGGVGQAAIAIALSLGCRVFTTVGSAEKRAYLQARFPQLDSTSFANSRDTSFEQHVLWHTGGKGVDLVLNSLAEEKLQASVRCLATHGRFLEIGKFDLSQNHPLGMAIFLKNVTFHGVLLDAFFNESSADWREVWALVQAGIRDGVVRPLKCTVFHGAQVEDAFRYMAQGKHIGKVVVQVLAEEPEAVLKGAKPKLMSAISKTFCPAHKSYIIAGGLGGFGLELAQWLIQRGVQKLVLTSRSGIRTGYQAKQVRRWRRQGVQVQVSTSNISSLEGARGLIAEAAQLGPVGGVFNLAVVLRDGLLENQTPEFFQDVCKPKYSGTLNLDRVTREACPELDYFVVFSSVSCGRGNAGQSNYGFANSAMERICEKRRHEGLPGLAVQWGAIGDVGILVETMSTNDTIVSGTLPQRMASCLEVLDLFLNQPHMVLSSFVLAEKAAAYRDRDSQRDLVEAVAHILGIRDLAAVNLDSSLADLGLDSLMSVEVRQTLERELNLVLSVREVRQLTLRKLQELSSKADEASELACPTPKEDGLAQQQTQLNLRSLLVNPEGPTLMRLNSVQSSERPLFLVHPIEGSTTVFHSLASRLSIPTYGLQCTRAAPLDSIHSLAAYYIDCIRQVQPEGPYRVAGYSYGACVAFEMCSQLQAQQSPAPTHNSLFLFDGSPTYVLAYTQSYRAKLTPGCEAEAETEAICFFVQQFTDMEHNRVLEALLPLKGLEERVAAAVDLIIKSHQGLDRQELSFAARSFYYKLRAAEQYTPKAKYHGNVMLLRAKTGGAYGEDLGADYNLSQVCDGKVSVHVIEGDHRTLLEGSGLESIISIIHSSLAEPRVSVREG

SMILES | inhibition at 10 µM [1] [%] | IC50 [1] [µM] | IC50 [2] [µM] | IC50 [3] [µM]
CC(C)(O)c1ccc(-c2ccc(C3=NC4(CC4)C(=O)N3CC3CN(C(=O)C4CC4)C3)cc2)nc1 [compound 794, 6-((1-(cyclopropanecarbonyl)azetidin-3-yl)methyl)-5-(4-(5-(2-hydroxypropan-2-yl)pyridin-2-yl)phenyl)-4,6-diazaspiro[2.4]hept-4-en-7-one] | -15 | > 10 | > 10 | > 10
CN(C)c1ccc(-c2ccc(C3=NC4(CC4)C(=O)N3C[C@@H]3CCN(C(=O)C4CC4)C3)cc2)cc1 [compound 124, 6-{[(3R)-1-(Cyclopropylcarbonyl)pyrrolidin-3-yl]methyl}-5-[4′-(dimethylamino)biphenyl-4-yl]-4,6-diazaspiro[2.4]hept-4-en-7-one] | 113 |  | > 10 | ~0.288
COCc1c2cc(-c3ccc(C4=NC5(CC5)C(=O)N4CC4CN(C(=O)C5CC5)C4)c(C)c3)ccc2nn1C [compound 589, 6-{[1-(Cyclopropylcarbonyl)azetidin-3-yl]methyl}-5-{4-[3-(methoxymethyl)-2-methyl-2H-indazol-5-yl]-2-methylphenyl}-4,6-diazaspiro[2.4]hept-4-en-7-one] | 52 | 9.55 | > 10 | 5.62
Cn1ncc2nc(-c3ccc(C4=NC5(CC5)C(=O)N4CC4CN(C(=O)C5CC5)C4)cc3)ccc21 [compound 792, 6-((1-(cyclopropanecarbonyl)azetidin-3-yl)methyl)-5-(4-(1-methyl-1H-pyrazolo[4,3-b]pyridin-5-yl)phenyl)-4,6-diazaspiro[2.4]hept-4-en-7-one] | 38 | > 10 | > 10 | > 10
CCCc1ccc(-c2ccc(C3=NC4(CC4)C(=O)N3CC3CN(C(=O)C4CC4)C3)cc2)cn1 [compound 795, 6-((1-(cyclopropanecarbonyl)azetidin-3-yl)methyl)-5-(4-(6-propylpyridin-3-yl)phenyl)-4,6-diazaspiro[2.4]hept-4-en-7-one] | 34 | > 10 | > 10 | > 10
O=C(C1CC1)N1CCC2(CC1)N=C(c1ccc(-c3ccc4occc4c3)cc1)N(CC1CN(C(=O)C3CC3)C1)C2=O [compound 134, 2-[4-(1-Benzofuran-5-yl)phenyl]-8-(cyclopropylcarbonyl)-3-{[1-(cyclopropylcarbonyl)azetidin-3-yl]methyl}-1,3,8-triazaspiro[4.5]dec-1-en-4-one] | 91.7 | 0.562 | > 10 | 4.47
Cc1cc(-c2ccc3nn(C)c(CO)c3c2)ccc1C1=NC2(CC2)C(=O)N1CC1CN(C(=O)C2CC2)C1 [compound 587, 6-{[1-(Cyclopropylcarbonyl)azetidin-3-yl]methyl}-5-{4-[3-(hydroxymethyl)-2-methyl-2H-indazol-5-yl]-2-methylphenyl}-4,6-diazaspiro[2.4]hept-4-en-7-one] | 70 | 3.31 | > 10 | ~8.51
Cc1cc(-c2ccc3ccc(Br)cc3n2)ccc1C1=NC2(CC2)C(=O)N1CC1CN(C(=O)C2(C)CC2)C1 [compound 595, 5-[4-(7-Bromoquinolin-2-yl)-2-methylphenyl]-6-({1-[(1-methylcyclopropyl)carbonyl]azetidin-3-yl}methyl)-4,6-diazaspiro[2.4]hept-4-en-7-one] | 83 | 1.35 | 6.61 | 3.24
Cc1cc(Cl)nc2cc(-c3ccc(C4=NC5(CC5)C(=O)N4CC4CN(C(=O)C5CC5)C4)cc3)ccc12 [compound 559, 5-[4-(2-Chloro-4-methylquinolin-7-yl)phenyl]-6-{[1-(cyclopropylcarbonyl)azetidin-3-yl]methyl}-4,6-diazaspiro[2.4]hept-4-en-7-one] | 59 | 6.03 | > 10 | 9.33
O=C(C1CC1)N1CC(CN2C(=O)C3(CC3)N=C2c2ccc(-c3ccc4c(cnn4C4COC4)c3)cc2F)C1 [compound 789, 6-((1-(cyclopropanecarbonyl)azetidin-3-yl)methyl)-5-(2-fluoro-4-(1-(oxetan-3-yl)-1H-indazol-5-yl)phenyl)-4,6-diazaspiro[2.4]hept-4-en-7-one] | 26 | > 10 | > 10 | > 10
O=C(C1CC1)N1CC[C@@H](CN2C(=O)C3(CCCC3)N=C2c2ccc(-c3ccc4occc4c3)cc2F)C1 [compound 120, 2-[4-(1-Benzofuran-5-yl)-2-fluorophenyl]-3-{[(3R)-1-(cyclopropylcarbonyl)pyrrolidin-3-yl]methyl}-1,3-diazaspiro[4.4]non-1-en-4-one] | 116 | 0.0389 | 5.01 | ~0.759
Cc1ccc2c(-c3ccc(C4=NC5(CC5)C(=O)N4CC4CN(C(=O)C5CC5)C4)cc3)cccc2n1 [compound 790, 6-((1-(cyclopropanecarbonyl)azetidin-3-yl)methyl)-5-(4-(2-methy7lquinolin-5-yl)phenyl)-4,6-diazaspiro[2.4]jept-4-en-7-one] | 47 | > 10 | > 10 | > 10
Cc1cc(-c2cccc(S(C)(=O)=O)c2)ccc1C1=NC2(CC2)C(=O)N1CC1CN(C(=O)C2CC2)C1 [compound 775, 6-((1-(cyclopropanecarbonyl)azetidin-3-yl)methyl)-5-(3-methyl-3′-(methylsulfonyl)-[1,1′-biphenyl]-4-yl)-4,6-diazaspiro[2.4]hept-4-en-7-one] | 34 | > 10 | > 10 | > 10
Cc1nnc2ccc(-c3ccc(C4=NC5(CC5)C(=O)N4CC4CN(C(=O)C5CC5)C4)cc3)cn12 [compound 793, 6-((1-(cyclopropanecarbonyl)azetidin-3-yl)methyl)-5-(4-(3-methyl-[1,2,4]triazolo[4,3-a]pyridin-6-yl)phenyl)-4,6-diazaspiro[2.4]hept-4-en-7-one] | 13 | > 10 | > 10 | > 10
Cc1cc(-c2cccc(S(=O)(=O)C(C)C)c2)ccc1C1=NC2(CC2)C(=O)N1C[C@@H]1CCN(C(=O)C2CC2)C1 [compound 636, 6-{[(3R)-1-(Cyclopropylcarbonyl)pyrrolidin-3-yl]methyl}-5-{3-methyl-3′-[(1-methylethyl)sulfonyl]biphenyl-4-yl}-4,6-diazaspiro[2.4]hept-4-en-7-one] | 59 | 6.76 | > 10 | ~5.89
Cc1cc(-c2ccc3c(C)cc(Cl)nc3c2)ccc1C1=NC2(CC2)C(=O)N1CC1CN(C(=O)C2(C)CC2)C1 [compound 624, 5-[4-(2-Chloro-4-methylquinolin-7-yl)-2-methylphenyl]-6-({1-[(1-methylcyclopropyl)carbonyl]azetidin-3-yl}methyl)-4,6-diazaspiro[2.4]hept-4-en-7-one] | 76 | 2.24 | 6.61 | 1.45
N#Cc1ccc2ccc(-c3ccc(C4=NC5(CC5)C(=O)N4CC4CN(C(=O)C5CC5)C4)cc3)cc2n1 [compound 611, 7-[4-(6-{[1-(Cyclopropylcarbonyl)azetidin-3-yl]methyl}-7-oxo-4,6-diazaspiro[2.4]hept-4-en-5-yl)phenyl]quinolin-2-carbonitrile] | 46 | ~10 | > 10 | > 10
COC(=O)N1CC(CN2C(=O)C3(CCOCC3)N=C2c2ccc(-c3ccc4cccnc4c3)cc2)C1 [compound 922, methyl 3-((4-oxo-2-(4-(quinolin-7-yl)phenyl)-8-oxa-1,3-diazaspiro[4.5]dec-1-en-3-yl)methyl)azetidine-1-carboxylate] | 38 | > 10 | > 10 | > 10
